{"source": "patent US11180809B2", "about": "“Biological markers for identifying patients for treatment with abiraterone acetate” (JANSSEN PHARMACEUTICA NV, priority 2014, dated 2021)", "key": {"[1]": {"test_system": "metastatic castration-resistant prostate cancer (mCRPC)", "assay": "COU-AA-302: multivariate biomarker panel classifier (low/high risk) versus radiographic progression free survival, independent test set", "type": "in vivo, human", "conditions": "test set (AA group), multivariate panel cutpoint 0.9977", "description": "(§1) COU-AA-302 is a Phase 3, multinational, randomized, double-blind, placebo-controlled study comparing the efficacy and safety of AA and prednisone (AA+P) to placebo and prednisone (Placebo+P) in medically or surgically castrated asymptomatic or mildly symptomatic men with mCRPC who have not received cytotoxic chemotherapy. Patients were assigned in a 1:1 ratio to receive either AA+P or Placebo+P and were stratified based on ECOG performance status of 0 or 1, as discussed in Clinical Study Protocol: A Phase 3 Randomized, Double-blind, Placebo-controlled Study of Abiraterone Acetate (CB7630) Plus Prednisone in Asymptomatic or Mildly Symptomatic Subjects with Metastatic Castration Resistant Prostate Cancer. Protocol COU-AA-302; EudraCT No. 2008-008004-41; 9 Jul. 2012.\n(§2) All subjects in Study COU-AA-302, regardless of treatment group, received concurrent prednisone. See Clinical Study Report: CSR COU-AA-302 2012. A Phase 3, Randomized, Double-Blind, Placebo-Controlled Study of Abiraterone Acetate Plus Prednisone in Asymptomatic or Mildly Symptomatic Subjects With Metastatic Castration-Resistant Prostate Cancer. Issue Date: 26 Oct. 2012. Subjects who received AA+P are referred to herein as the “AA group” and in tables as “AA.” Subjects who received Placebo+P are referred to herein as the “Placebo group” and in tables as “Placebo.” Additional study related details can be obtained from the COU-AA-302 clinical study protocol or clinical study report.\nA multivariate biomarker panel was identified using penalized regression to define a classifier that predicts radiographic progression free survival. The model was defined using an elastic net approach for feature selection and model specification. Data was separated into training and testing sets using a 70%-30% split. Within the training data, 10-fold cross-validation was used to define model parameters. Elastic net models have two parameters: alpha and lambda. Alpha is the elastic net penalty and determines the specific mixture of penalties that will be applied to limit complexity of the model. Lambda is the regularization penalty which determines the magnitude of the parameter used to limit complexity. After optimizing alpha and lambda using cross-validation, the values were used to define the cox regression model on the training data. The model is used to predict the relative risk of progression free-survival for all subjects in the training set. Then, time-dependent ROC analysis was used to determine the predictive power of the model and dichotomize the relative risk into two groups associated with low and high risk at the timepoint at which 90% of subjects with radiographic progression had observed recurrence of disease (t=20.48 months). This model, consisting of regression coefficients, timepoint and cutoff to discriminate between low and high risk, was applied to predict the relative risk of subjects in the independent test data and evaluate the predictive power and association with time to event of the classifier. This evaluation is repeated on the placebo data to confirm that the classifier is predictive of response to Abiraterone and not prognostic of outcome independent of treatment. Features used in the model building process included all single gene markers detected in greater than 50% of samples to exclude low expressing genes. The model was optimized to alpha=0.5 and lambda=0.209. Using these parameters, the optimized survival models were defined as described in Table 6.\nTable 7 lists the predictive metrics which describe the performance of these models on the independent test and placebo group data.\nTable 8 lists the statistics describing the association between classifier predictions and time to radiographic progression free survival."}, "[2]": {"test_system": "metastatic castration-resistant prostate cancer (mCRPC)", "assay": "COU-AA-302 Phase 3 study: Cox regression association of tumor mRNA biomarker expression with rPFS/OS within the AA group", "type": "in vivo, human", "description": "as §1, §2\nFormalin fixed paraffin embedded (FFPE) tumor samples from 258 subjects who optionally consented for RNA analysis were collected and shipped to the central laboratory (Covance, Ind.) for RNA analysis. FFPE samples from 152 subjects had sufficient RNA for TaqMan® Low Density Array (TLDA) analysis. Samples from the other 106 subjects were excluded either due to lack of tumor or low RNA yield. Of the 152 samples evaluated by TLDA, samples from 42 subjects were excluded from data analysis due to technical failures (no detectable gene expression or batch effects induced by microdissection of samples with low tumor content or low RNA input mass [<250 ng of total RNA]). The remaining evaluable samples from 110 subjects (Biomarker population) who were part of the ITT population (10%) and who had drug exposure with clinical data for at least one of the efficacy endpoints (rPFS, OS) were included in the analysis. Samples from these subjects were included in the mRNA analysis using the TaqMan® array microfluidic cards.\nRaw CT values were filtered to remove values greater than 30. Quadruple replicate CT values were summarized using the geometric mean. Expression values were calculated using the comparative CT method as described in Schmittgen T D, Livak K J. Analyzing real-time PCR data by the comparative Ct method. Nature Protocols. 2008; 3:1101-1108. Briefly, a normalization factor was calculated for each sample using the geometric mean of housekeeping genes (ACTB and GAPDH). Relative expression values of all other transcripts were quantified as the difference between CT and the normalization factor. Transcript expression was calculated by the negation of the relative expression values to account for the inverse relationship between expression and CT. This is equivalent to the log 2 transform of 2^(-DeltaCT).\nAll statistical tests were interpreted at 5% significance levels (two-sided). For determination of specificity of biomarker association with clinical endpoints in AA group, a P<0.05 in the AA group and a P≥0.2 in the placebo group is required. Demographics and baseline characteristics were compared between the biomarker population and the ITT population using ANOVA (continuous variables) or Chi-Square (categorical variables) tests. […]"}, "[3]": {"conditions": "AA group (AA+prednisone), Cox regression with baseline ECOG, continuous log2 expression, (95% CI)"}, "[4]": {"conditions": "AA group, Cox regression with baseline ECOG, (95% CI)"}, "[5]": {"conditions": "AA group, multivariate Cox regression model"}}, "data": [{"molecule": "CC(=O)O[C@H]1CC[C@@]2(C)C(=CC[C@@H]3[C@@H]2CC[C@]2(C)C(c4cccnc4)=CC[C@@H]32)C1", "note": "[AA, abiraterone acetate]", "values": [{"measurement": "HR, High versus Low risk, time to radiographic progression free survival", "setting": "[1]; 95CI in next cell", "value": 6.25}, {"measurement": "Median time to radiographic progression free survival, High risk", "setting": "[1]; 95CI in next cell", "value": 8.2}, {"measurement": "Event/Total (Perc), rPFS, High risk", "setting": "[1]; percentage of events", "value": "(100.0)"}, {"measurement": "Event/Total (Perc), rPFS, Low risk", "setting": "[1]; percentage of events", "value": "(40.0)"}, {"measurement": "Event/Total, rPFS, High risk", "setting": "[1]; timepoint 20.4813", "value": "4/4"}, {"measurement": "Event/Total, rPFS, Low risk", "setting": "[1]; timepoint 20.4813", "value": "6/15"}, {"measurement": "HR, association of ANLN expression with rPFS (IND)", "setting": "[2]; [3]", "value": "0.84 (0.72, 0.96)"}, {"measurement": "HR, association of ANLN expression with rPFS (INV)", "setting": "[2]; [3]", "value": "0.80 (0.69, 0.93)"}, {"measurement": "reduction of the hazard of rPFS event per unit increase in relative expression of ANLN", "setting": "[2]; AA group, 1-0.84, unit = 2-fold difference relative to reference gene", "value": 16, "unit": "%"}, {"measurement": "HR, association of CYP17A1 and cofactors group composite score with OS", "setting": "[2]; AA group, Cox regression", "value": 0.20}, {"measurement": "HR, association of androgen controlled group composite score with OS", "setting": "[2]; AA group, Cox regression", "value": 0.31}, {"measurement": "HR, association of proliferation pathway module with rPFS (INV)", "setting": "[2]; AA group, Cox regression", "value": 0.63}, {"measurement": "HR, association of CYP17A1 and cofactors group composite score with rPFS (INV)", "setting": "[2]; [4]", "value": "0.71 (0.37, 1.36)"}, {"measurement": "HR, association of HSD17B10 expression with rPFS (IND)", "setting": "[2]; [4]", "value": "0.78 (0.62, 0.98)"}, {"measurement": "HR, association of HSD17B10 expression with rPFS (INV)", "setting": "[2]; [4]", "value": "0.76 (0.62, 0.94)"}, {"measurement": "HR, association of NUSAP1 expression with rPFS (IND)", "setting": "[2]; [4]", "value": "0.82 (0.67, 1.00)"}, {"measurement": "HR, association of NUSAP1 expression with rPFS (INV)", "setting": "[2]; [4]", "value": "0.78 (0.64, 0.95)"}, {"measurement": "HR, association of SRD5A1 expression with rPFS (IND)", "setting": "[2]; [4]", "value": "0.80 (0.65, 0.98)"}, {"measurement": "HR, association of SRD5A1 expression with rPFS (INV)", "setting": "[2]; [4]", "value": "0.83 (0.68, 1.00)"}, {"measurement": "HR, association of UBE2C expression with rPFS (IND)", "setting": "[2]; [4]", "value": "0.85 (0.74, 0.98)"}, {"measurement": "HR, association of UBE2C expression with rPFS (INV)", "setting": "[2]; [4]", "value": "0.81 (0.71, 0.93)"}, {"measurement": "HR, association of ANLN expression with rPFS (IND), corrected for RNA extraction methodology", "setting": "[2]; [5]", "value": 0.86}, {"measurement": "HR, association of HSD17B10 expression with rPFS (IND), corrected for RNA extraction methodology", "setting": "[2]; [5]", "value": 0.78}, {"measurement": "HR, association of NUSAP1 expression with rPFS (IND), corrected for RNA extraction methodology", "setting": "[2]; [5]", "value": 0.78}, {"measurement": "HR, association of SRD5A1 expression with rPFS (IND), corrected for RNA extraction methodology", "setting": "[2]; [5]", "value": 0.79}, {"measurement": "HR, association of UBE2C expression with rPFS (IND), corrected for RNA extraction methodology", "setting": "[2]; AA group, multivariate Cox regression model, trend of association", "value": 0.88}]}]}
